Measured values as given in PubChem BioAssay AID256 (DTP/NCI, 2004).
Inconclusive results and toxic doses are left out. The calls were made as follows: active = survival T/C of 150% or more; inactive = T/C below 125% in these data.

Tested on: CD2F1 mice, L1210 leukemia ip, survival T/C
Assay: NCI In Vivo Anticancer Drug Screen. Data for tumor model L1210 Leukemia (intraperitoneal) in CD2F1 (CDF1) mice
Conditions: higher = longer survival
Method in brief: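 Ratio T/C, where T is the treated-group value and C the vehicle-dosed control value, from mice implanted with a transplantable tumor.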

[1] = endpoint: mean survival time, dose: 100.0 mg/kg/injection, schedule: Q01DX009 (ip), vehicle: saline
[2] = endpoint: mean survival time, dose: 25.0 mg/kg/injection, schedule: Q01DX009 (ip), vehicle: saline
[3] = endpoint: mean survival time, dose: 50.0 mg/kg/injection, schedule: Q01DX009 (ip), vehicle: saline
[4] = endpoint: mean survival time, dose: 50.0 mg/kg/injection, schedule: Q04DX002 (ip), vehicle: saline with Tween-80
[5] = endpoint: mean survival time, dose: 100.0 mg/kg/injection, schedule: Q04DX002 (ip), vehicle: saline with Tween-80
[6] = endpoint: mean survival time, dose: 100.0 mg/kg/injection, schedule: Q04DX003 (ip), vehicle: saline with Tween-80
[7] = endpoint: mean survival time, dose: 200.0 mg/kg/injection, schedule: Q04DX003 (ip), vehicle: saline with Tween-80
[8] = endpoint: mean survival time, dose: 400.0 mg/kg/injection, schedule: Q04DX003 (ip), vehicle: saline with Tween-80
[9] = endpoint: mean survival time, dose: 100.0 mg/kg/injection, schedule: Q01DX009 (ip), vehicle: saline with Tween-80
[10] = endpoint: mean survival time, dose: 200.0 mg/kg/injection, schedule: Q01DX009 (ip), vehicle: saline with Tween-80
[11] = endpoint: mean survival time, dose: 400.0 mg/kg/injection, schedule: Q01DX009 (ip), vehicle: saline with Tween-80
[12] = endpoint: mean survival time, dose: 100.0 mg/kg/injection, schedule: Q01DX001 (ip), vehicle: saline with Tween-80
[13] = endpoint: mean survival time, dose: 200.0 mg/kg/injection, schedule: Q01DX001 (ip), vehicle: saline with Tween-80
[14] = endpoint: mean survival time, dose: 12.5 mg/kg/injection, schedule: Q01DX009 (ip), vehicle: other
[15] = endpoint: mean survival time, dose: 25.0 mg/kg/injection, schedule: Q01DX009 (ip), vehicle: other
[16] = endpoint: mean survival time, dose: 50.0 mg/kg/injection, schedule: Q01DX009 (ip), vehicle: other
[17] = endpoint: mean survival time, dose: 100.0 mg/kg/injection, schedule: Q01DX009 (ip), vehicle: other
[18] = endpoint: mean survival time, dose: 200.0 mg/kg/injection, schedule: Q01DX009 (ip), vehicle: other

Measured: T/C

CS(C)=O.[Cl-].[Cl-].[NH-]CC(O)CN(Cc1ccccc1)CC(O)CN.[Pt] (centres undefined)
inactive: endpoint: median survival time, dose: 10.0 mg/kg/injection, schedule: Q04DX003 (ip), vehicle: saline 104 % of control | endpoint: median survival time, dose: 20.0 mg/kg/injection, schedule: Q04DX003 (ip), vehicle: saline 109 % of control | endpoint: median survival time, dose: 40.0 mg/kg/injection, schedule: Q04DX003 (ip), vehicle: saline 110 % of control | endpoint: median survival time, dose: 80.0 mg/kg/injection, schedule: Q04DX003 (ip), vehicle: saline 86 % of control

N#CCCOCCC#N
inactive: [1] 100 % of control | endpoint: mean survival time, dose: 200.0 mg/kg/injection, schedule: Q01DX009 (ip), vehicle: saline 98 % of control | endpoint: mean survival time, dose: 400.0 mg/kg/injection, schedule: Q01DX009 (ip), vehicle: saline 102 % of control

O=C(O)C1(Br)CCC1
inactive: endpoint: mean survival time, dose: 12.5 mg/kg/injection, schedule: Q01DX005 (ip), vehicle: saline with Tween-80 89 % of control | endpoint: mean survival time, dose: 12.5 mg/kg/injection, schedule: Q01DX009 (ip), vehicle: saline 100 % of control | endpoint: mean survival time, dose: 25.0 mg/kg/injection, schedule: Q01DX005 (ip), vehicle: saline with Tween-80 101 % of control | [2] 89 % of control | endpoint: mean survival time, dose: 50.0 mg/kg/injection, schedule: Q01DX005 (ip), vehicle: saline with Tween-80 108 % of control | [3] 93 % of control | [4] 97 % of control | endpoint: mean survival time, dose: 100.0 mg/kg/injection, schedule: Q01DX005 (ip), vehicle: saline with Tween-80 97 % of control | [1] 89 % of control | [5] 94 % of control

O=C(OCC1OC(n2nc(SCc3ccccc3)c(=O)[nH]c2=O)C(OC(=O)c2ccccc2)C1OC(=O)c1ccccc1)c1ccccc1 (centres undefined)
inactive: endpoint: mean survival time, dose: 12.5 mg/kg/injection, schedule: Q01DX005 (ip), vehicle: distilled water + Tween-80 93 % of control | endpoint: mean survival time, dose: 25.0 mg/kg/injection, schedule: Q01DX005 (ip), vehicle: distilled water + Tween-80 95 % of control | endpoint: mean survival time, dose: 50.0 mg/kg/injection, schedule: Q01DX005 (ip), vehicle: distilled water + Tween-80 97 % of control | endpoint: mean survival time, dose: 100.0 mg/kg/injection, schedule: Q01DX005 (ip), vehicle: distilled water + Tween-80 88 % of control

C=C1C(=O)OC2CC3(C)CCCC(C)C34OC4C12 (centres undefined)
inactive: endpoint: mean survival time, dose: 50.0 mg/kg/injection, schedule: Q04DX002 (ip), vehicle: saline 90 % of control | endpoint: mean survival time, dose: 100.0 mg/kg/injection, schedule: Q04DX002 (ip), vehicle: saline 98 % of control | endpoint: mean survival time, dose: 200.0 mg/kg/injection, schedule: Q04DX002 (ip), vehicle: saline 114 % of control

O=C(N/N=C/c1ccccc1)c1ccc(Cl)c(Cl)c1
inactive: endpoint: mean survival time, dose: 100.0 mg/kg/injection, schedule: Q01DX009 (ip), vehicle: Klucel (hydroxypropylcellulose) (HPC) 105 % of control | endpoint: mean survival time, dose: 200.0 mg/kg/injection, schedule: Q01DX009 (ip), vehicle: Klucel (hydroxypropylcellulose) (HPC) 101 % of control | endpoint: mean survival time, dose: 400.0 mg/kg/injection, schedule: Q01DX009 (ip), vehicle: Klucel (hydroxypropylcellulose) (HPC) 101 % of control

O=C(O)C1C2CCC(C2)C1C(=O)O (centres undefined)
inactive: endpoint: mean survival time, dose: 25.0 mg/kg/injection, schedule: Q04DX002 (ip), vehicle: saline with Tween-80 118 % of control | [4] 100 % of control | endpoint: mean survival time, dose: 100.0 mg/kg/injection, schedule: Q01DX001 (ip), vehicle: Klucel (hydroxypropylcellulose) (HPC) 108 % of control | [5] 89 % of control | [6] 105 % of control | endpoint: mean survival time, dose: 200.0 mg/kg/injection, schedule: Q01DX001 (ip), vehicle: Klucel (hydroxypropylcellulose) (HPC) 98 % of control | endpoint: mean survival time, dose: 200.0 mg/kg/injection, schedule: Q04DX002 (ip), vehicle: saline with Tween-80 93 % of control | [7] 102 % of control | endpoint: mean survival time, dose: 400.0 mg/kg/injection, schedule: Q01DX001 (ip), vehicle: Klucel (hydroxypropylcellulose) (HPC) 96 % of control

[Cl][Pt+2][Cl].[NH-]c1ccc(S(N)(=O)=O)cc1.[NH-]c1ccc(S(N)(=O)=O)cc1
inactive: endpoint: mean survival time, dose: 25.0 mg/kg/injection, schedule: Q04DX003 (ip), vehicle: saline with Tween-80 90 % of control | endpoint: mean survival time, dose: 50.0 mg/kg/injection, schedule: Q04DX003 (ip), vehicle: saline with Tween-80 98 % of control | [6] 94 % of control | [7] 102 % of control | [8] 102 % of control

CC12CCC3C(CCC4CCCCC43C)C1CC/C2=N\O (centres undefined)
inactive: endpoint: mean survival time, dose: 100.0 mg/kg/injection, schedule: Q04DX003 (sc), vehicle: steriod suspending solution 96 % of control | endpoint: mean survival time, dose: 200.0 mg/kg/injection, schedule: Q04DX003 (sc), vehicle: steriod suspending solution 104 % of control | endpoint: mean survival time, dose: 400.0 mg/kg/injection, schedule: Q04DX003 (sc), vehicle: steriod suspending solution 89 % of control

OC(C/C=C/c1ccccc1)(c1ccccc1)c1ccccc1
inactive: [9] 93 % of control | [10] 101 % of control | [11] 96 % of control

O=C(NC(CO)C(O)c1ccc(N=Nc2cccc3ccccc23)cc1)C(Cl)Cl (centres undefined)
inactive: [9] 100 % of control | [10] 101 % of control | [11] 101 % of control

CC(O)CC1CC(=O)CCC1=O (centres undefined)
inactive: [12] 98 % of control | [13] 103 % of control | endpoint: mean survival time, dose: 400.0 mg/kg/injection, schedule: Q01DX001 (ip), vehicle: saline with Tween-80 95 % of control

COc1ccc(/C=N/NC(=O)c2ccccc2)cc1OC
inactive: [14] 98 % of control | [15] 105 % of control | [16] 105 % of control | [17] 107 % of control | [18] 107 % of control

CC(=O)OC(OC(C)=O)c1cccc([N+](=O)[O-])c1
inactive: [9] 102 % of control | [10] 93 % of control | [11] 96 % of control

Nc1ccc(-c2ccc(N)cc2)cc1
inactive: [9] 94 % of control | [6] 101 % of control | [10] 90 % of control | [7] 101 % of control | [11] 100 % of control | [8] 96 % of control

CCCCCCCCCCCCNC=O
inactive: [2] 100 % of control | [3] 103 % of control | [1] 106 % of control

CC1(O)CC2CCCC1C2 (centres undefined)
inactive: [6] 93 % of control | [7] 90 % of control | [8] 93 % of control

O=C1C(c2ccccc2)=C(c2ccccc2)c2c(-c3ccccc3)ccc(-c3ccccc3)c21
inactive: [6] 89 % of control | [7] 100 % of control | [8] 94 % of control

COc1ccc(C(=O)c2ncccc2C(=O)O)cc1OC
inactive: [14] 98 % of control | [15] 104 % of control | [16] 104 % of control | [17] 104 % of control | [18] 105 % of control

C/C(=N\Nc1ccc([N+](=O)[O-])cc1[N+](=O)[O-])C1CCC(=O)O1 (centres undefined)
inactive: endpoint: mean survival time, dose: 50.0 mg/kg/injection, schedule: Q01DX001 (ip), vehicle: saline with Tween-80 109 % of control | [12] 103 % of control | [13] 103 % of control
